{"source": "patent US20140004122A1", "about": "“METHODS FOR TREATING OR PREVENTING CHOLESTEROL RELATED DISORDERS” (AMGEN INC., priority 2011, published 2014)", "system": "hypercholesterolemic subjects with a 10 year Framingham risk score of 10% or less", "test": "12 week monotherapy dose-ranging study (Example 24)", "assay_type": "in vivo, human", "protocol": "Ezetimibe was not blinded. The end-of-study visit and the last estimation of lipids was at week 12 for subjects on Q4W IP schedule or on ezetimibe and week 14 for subjects on Q2W IP schedule.\nMales and females, ≧18 to ≦75 years of age, were eligible for this study. Fasting LDL-C was ≧100 mg/dL (2.6 mmol/L) and <190 mg/dL (4.9 mmol/L) and fasting triglycerides ≦400 mg/dL (4.5 mmol/L) by central laboratory at screening.\nThe primary endpoint was the percent change from baseline in LDL-C at week 12. Secondary endpoints included percent changes in apolipoprotein B (ApoB), lipoprotein (a) (Lp(a)), and in the ratio of total cholesterol to high-density lipoprotein (HDL)-C. Tolerability and safety were also evaluated."}
{"smiles": "O=C1[C@H](CC[C@H](O)c2ccc(F)cc2)[C@@H](c2ccc(O)cc2)N1c1ccc(F)cc1", "note": "[Ezetimibe, ezetimibe, reference compound]", "values": [{"measurement": "percent change from baseline in LDL-C", "setting": "week 12, final data, ezetimibe QD PO", "result": 14, "unit": "%"}, {"measurement": "Least squares mean percent change from baseline (%) in LDL-C", "setting": "week 12, Ezetimibe QD (N = 45)", "result": "−14.26", "unit": "%"}]}
